≈ marks a conversion by molar mass, not a printed value. Entries after “also recorded” stand apart in the source; their conditions may differ. Like-named read-outs stand apart in the source and are kept apart here.

Broadly, the IC50 is the concentration that inhibits the measured activity by half.

Series [1] in a line: Cytotoxicity on static MRC-5 cells. The format is cell-based. The note with it: human, Table 4, 50% cell death (static cells), read-out: TC50 Static MRC-5. Here is the method:
(§1) Cell Culture. Vero (African Green Monkey kidney cells) and MRC-5 (diploid Human Embryonic Lung fibroblasts) cells were obtained from the American Type Culture Collection (ATCC) and were grown in minimal essential medium (MEM) with Earl's salts and glutamine (GIBCO BRL, Life Technologies, Inc.) with 10% heat inactivated fetal bovine serum (GIBCO BRL) and penicillin (100 μg/mL)/streptomycin (100 μg/mL).
(§2) Cytotoxicity Analysis. The cytotoxicity of the compound was assayed using few the CellTiter 96™ Aqueous Non-Radioactive Cell Proliferation (MTS) Assay (Promega). Briefly, viable cell number was determined by trypan blue staining and cells (MRC-5 and Vero) were resuspended in minimal essential medium (MEM) supplemented with 10% FBS (GIBCO). Eighty microliters of cell suspension (1.7×10^4 cells/well) was dispensed onto a 96-well microtiter plates. At this time 20 μL of drug (or control) was added to appropriate wells. Each concentration was assayed in quadruplicate. The plates were incubated at 37° C. in a humidified 5% CO2 atmosphere for 4 days and MTS assay was performed according to the manufacturer's instructions. The average absorbence of the sample was graphed for each concentration and the data obtained was used to calculate TC50 (the concentration necessary to give one-half maximum growth) for each compound.

The test system of series [2] is IL-1β. Description: Inhibition of IL-1β production in LPS-stimulated THP-1 cells (ELISA). The note with it: for IC50: Homo sapiens. The format is cell-based, human. As to the method:
Cell line. THP-1 cells (human monocyte) were maintained in RPMI 1640 medium containing 25 mM Hepes buffer, 2 mM L-glutamine, 50 units of penicillin per mL, 50 μg of streptomycin sulfate per mL, and 10% heat-inactivated fetal bovine serum (FBS) in a humidified incubator containing 5% CO2. The cells were split 1:4 weekly as recommended by the American Type Culture Collection (ATCC).
TNFα assay. Varying concentrations of the test compound or control compound were added to THP-1 cells plated at a density of 1×10^6cells/mL in 600 μL of 10% RPMI in a 48 well plate. After one hour the cells were stimulated with 0.5 μg of lipopolysaccharide (LPS; Sigma, lot number 43H40491) per mL. Six hours post-stimulation supernatants were collected and assayed for TNFα or IL-1β production using a commercially available cytokine detection ELISA (Enzyme Linked Immunosorbent Assay) kit according to the suppliers instructions. A suitable assay kit may be obtained from Biosource, or R and D systems. A novel xanthine analog, HWA-3138, having the structure (as shown below) was used as the control compound (30) in this study to monitor the response of the THP-l cells. Xanthine analogs are known inhibitors of TNFα but not IL-1β. In the following experiments compound HWA-3138 was used as a positive control. [drawing 58] […]
THP-1 cells were cultured and IL-1β inhibition assays were conducted as described for TNFα in Example 46, except a commercially available IL-1β assay kit, obtained from R and D Systems, Minneapolis, Minn., was used instead of the TNFα kit.
With reference now to FIG. 8, for each concentration of T70241 tested, the membrane bound IL-1β was separated from the IL-1β found free in the culture medium at 6 hours post-LPS stimulation as described in Example 46 for TNFα, and the percent inhibition of each fraction was graphed.

Series [3] deals with PBMCs. As to the kind of experiment: Viability of PBMCs exposed to test compound. The note with it: 48 hours of exposure. The format is cell-based, human.
Series [4] is described as follows: Viability of PBMCs exposed to test compound. The following applies: human, pbmcs, 48 h, +LPS, read-out: % Viable Cells. The format is cell-based, human.
Series [5] is described as follows: Cytotoxicity on growing MRC-5 cells (MTS). The format is cell-based, human. The note with it: human, mrc-5 cells. Here is the method:
as §1, §2

A short description of series [6]: Cytotoxicity on growing THP-1 cells (MTS assay). The format is cell-based, human. The following applies: human, thp-1 cells; Table 2; drug dose required to inhibit logphase growing cells by 50%; read-out: TC50 Growing THP-1. As to the method:
Cytotoxicity Analysis. The cytotoxicity of the compounds were assayed using the CellTiter 96™ Aqueous Non-Radioactive Cell Proliferation (MTS) Assay kit obtained from Promega (Madison, Wis.) following the instructions provided by the supplier. The viable cell number was determined by trypan blue staining and cells (THP-1) were resuspended in PRMI supplemented with 10% FBS (GIBCO). Eighty microliters of cell suspension (1.7×10^4cells/well) was dispensed onto a 96-well microtiter plates. At this time 20 μL of drug (or control) was added to appropriate wells. Each concentration was assayed in quadruplicate. The plates were incubated at 37° C. in a humidified 5% CO2 atmosphere for 4 days and MTS assay […] for each concentration and the data obtained was used to calculate TC50 (the concentration of the compound necessary to inhibit the cell growth by 50%) for each compound.
(Tetrazolium assays rely on reduction of a dye to a coloured formazan, in cell work by metabolically active cells.)

Series [7] concerns adenosine deaminase (ADA). Description: Enzymatic hydrolysis by adenosine deaminase. The format is in vitro ADME, calf. As to the method:
Adenosine deaminase (ADA, adenosine aminohydrolase, EC 3.5.4.4, SIGMA) from calf intestinal mucosa was prepared to give a stock of 1 mg/mL (250-280 units/mL) in pH 7.4, 0.01 M phosphate buffer. The relative rates of hydrolysis of selected compounds by ADA and characterization of the products was carried as follows. […] Fifty-microliter aliquots were taken at time intervals and hydrolysis was quenched by mixing with 0.45 mL of distilled water and then the diluted sample was heated at 95° C. for 6 min to ensure enxyme deactivation. The decrease in substrate concentration and the formation of the products was followed over time by UV-spectroscopic analysis. Adenosine was used as a control in this experiment and one unit is defined as the amount of ADA that hydrolyzes 1.0 μmol of adenosine/min at 25° C.

Series [8] has as its system HSV-2. Description: HSV-2 CPE assay in Vero cells. The format is cell-based. The following applies: Human alphaherpesvirus 2, Vero; Table 4.
Where [9] appears, read: Table 2, LPS-stimulated THP-1, 6 h post-stimulation, read-out: IC50 IL-1β in THP-1 cells.

For `Nc1ncnc2pc[nH]c12` (centres unmarked) [T70241, 7-amino-1H-1,3-azaphospholo[4,5-d]pyrimidine], the CC50 at 96 h in series [1] is above 50 µg/mL; in series [5] (FIG. 9A, four day period, read-out: TC50, growing MRC-5 cells), above 50 µg/mL; in series [6], above 1000 µg/mL. Further, the “inhibition of IL-1β production” value in series [2] (50 to 100 μg/mL, THP-1 (FIG. 6)) is given as “able to inhibit IL-1β production”. Further, the “cell-associated and free IL-1β” value in series [2] (6 hours post-LPS (FIG. 8)) is “reduce both the cell-associated (intracelluar) and the free (extracellular) IL-1β”. Besides, the IC50 was 16.1 µg/mL (≈ 106 µM) in series [2] (setting [9]); 38.8 µg/mL (≈ 255 µM) in series [2] (from FIG. 6, LPS-stimulated THP-1, read-out: IC50, IL-1β production); above 50 µg/mL in series [8]. Moreover, the “PBMC viability / toxicity” value in series [3] is listed as “cell viability was not affected; also recorded: minimal”. Further, the viability at 48 h in series [4] (10 μg/ml) came to 104%; in series [4] (50 μg/ml) it was 83%; in series [4] (100 μg/ml) it was 94%; in series [4] (250 μg/ml) it was 88%. In series [7], the “ADA substrate” value is on record as “not a substrate for ADA”. Moreover, the “hydrolysis by ADA: UV spectra” value in series [7] (up to 5 hours in presence of ADA) is recorded as “remained unchanged”.

Take `CCCCCn1cpc2ncnc(N)c21` (centres unmarked) [T70254, 7-Amino-1-(n-pentyl)-1,3-azaphospholo[4,5-d]pyrimidine]: the CC50 at 96 h in series [1] came out at 9.25 µg/mL (≈ 41.6 µM); in series [5] (Table 4, 50% inhibition of logphase growing cells, read-out: TC50 Growing MRC-5) it was 17.9 µg/mL (≈ 80.8 µM); in series [6] it was 14.7 µg/mL (≈ 66.2 µM). Also, the IC50 in series [2] (setting [9]) was 152 µg/mL (≈ 686 µM); in series [8], above 50 µg/mL.

Values taken from patent US6069132A, “Phosphazole compounds” (priority 1997, dated 2000).
